The target of this assay is human recombinant H-PGDS (Homo sapiens, UniProt O60760). Put plainly: Fluorescence intensity h-PGDS TBA enzyme assay (PGH2 depletion, MDA/TBA fluorescence). Format: biochemical. The following applies: 1:175,000 human recombinant H-PGDS, 42 second reaction, 3-fold serial dilutions, highest concentration typically 1 μM. On the procedure: Fluoresecence Intensity h-PGDSTBA Enzyme Assay
Prostaglandin D Synthase (PGDS) converts the substrate prostaglandin H2 (PGH2) to prostaglandin D2. The depletion of PGH2 was measured via an Fe(II) reduction of the remaining PGH2 to malondialdehyde (MDA) and 12-HHT. The enzyme assay is based on the quantitative formation of a fluorescent complex from the non-fluorescent compounds MDA and 2-thiobarbituric acid (TBA), substantially as described in U.S. patent application publication US-2004/152148 by Lombardt.
The enzyme assay (31 μls) contained 100 mM Tris base pH 8.0, 100 μM MgCl2, 0.1 mg/ml IgG Rabbit serum, 5.0 μM PGH2 (Cayman; ethanol solution, #17020), 2.5 mM L-Glutathione (Sigma; reduced form. #G4251), 1:175,000 human recombinant H-PGDS (from 1 mg/ml), 0.5% DMSO and inhibitor (varying concentration). Three μls of diluted inhibitor (dissolved in DMSO) was plated into a 384-well assay plate followed by a 25 μl addition of an enzyme solution containing h-PGDS, Tris, MgCl2, IgG and L-Glutathione. After preincubation of inhibitor and enzyme solution for 10 minutes at room temperature, the reaction was initiated with a 3 μl addition of substrate solution in 10 mM HCl. The reaction was terminated after 42 second by the addition (3 μl) of stop buffer containing FeCl2 and citric acid. After addition of 45.5 μls of TBA plates were heated for one hour in a 70° C. oven. Plates were cooled at room temperature overnight and read on a plate reader the next day with excitation @ 530 nm and emission @ 565 nm.
IC50' s of inhibitors were calculated with a 4-parameter fit using 11 inhibitor concentrations in duplicate with 3-fold serial dilutions. Controls on each plate included no inhibitor (zero % effect) and an inhibitor 10-fold in excess of its' IC50 (100% effect). The highest inhibitor concentration tested was typically 1 μM.

Results on 30 compounds are retold here after patent publication US20100173888A1 (Pfizer Inc, priority 2008, published 2010).

Where a name gives a salt, the structure may show the parent alone.

Chain of human recombinant H-PGDS (O60760 whole entry): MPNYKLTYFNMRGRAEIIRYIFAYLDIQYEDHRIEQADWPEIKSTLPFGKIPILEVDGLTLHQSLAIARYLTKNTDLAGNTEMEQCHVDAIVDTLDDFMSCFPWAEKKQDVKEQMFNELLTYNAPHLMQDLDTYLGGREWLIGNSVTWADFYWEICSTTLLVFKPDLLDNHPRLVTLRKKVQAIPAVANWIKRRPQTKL

In the case of `CN(C)C(=O)N[C@H]1CC[C@H](NC(=O)c2ccc(-c3cccc(F)c3)nc2)CC1` [Example 271], the IC50 (commonly the concentration at which inhibition is half-maximal) was determined as 18 nM. Turning to `O=C(N[C@@H]1CC[C@@H](O)C1)c1ccc(-c2cccc(F)c2)nc1` [Example 130A, 6-(3-fluorophenyl)-N-[(1R,3R)-3-hydroxycyclopentyl]nicotinamide], the IC50 came to 52.3 nM. Under `O=C(N[C@@H]1CC[C@H](C(=O)N2CCOCC2)C1)c1ccc(-c2cccc(F)c2)nc1` [Example 179, 6-(3-Fluorophenyl)-N-[(1R,3S)-3-(morpholin-4-ylcarbonyl)cyclopentyl]nicotinamide] stands 5.6 nM. The figure for `N#CC1(C(=O)N2CCOCC2)CCCC(NC(=O)c2ccc(-c3cccc(F)c3)nc2)C1` (stereo not drawn) [Example 265, N-[3-Cyano-3-(morpholin-4-ylcarbonyl)cyclohexyl]-6-(3-fluorophenyl)nicotinamide] is 2.8 nM; for `CCC(O)[C@H]1CC[C@H](NC(=O)c2ccc(-c3cccc(F)c3)nc2)CC1` (stereo partly drawn) [Example 214, 6-(3-Fluorophenyl)-N-[trans-4-(1-hydroxypropyl)cyclohexyl]nicotinamide] it is 3 nM. Under `NC(=O)[C@@H]1CC[C@H](NC(=O)c2ccc(-c3cccc(F)c3)nc2)C1` [Example 175, N-[(1S,3R)-3-Carbamoylcyclopentyl]-6-(3-fluorophenyl)nicotinamide] stands 20.2 nM. Turning to `CN[C@H]1CC[C@H](NC(=O)[C@@H]2CCC[C@H](NC(=O)c3ccc(-c4cccc(F)c4)nc3)C2)CC1` (stereo in doubt) [Example 193, 6-(3-Fluorophenyl)-N-[(1S,3R)-3-{[trans-4-(methylamino)cyclohexyl]carbamoyl}cyclohexyl]nicotinamide], the IC50 came to 10.2 nM.

For the compound `CN1CCN(C(=O)[C@@]2(C)CCC[C@@H](NC(=O)c3ccc(-c4cccc(F)c4)nc3)C2)CC1` [Example 230, 6-(3-Fluorophenyl)-N-{(1R,3S)-3-methyl-3-[(4-methylpiperazin-1-yl)carbonyl]cyclohexyl}nicotinamide], the IC50 came out at 37.3 nM. Consider `N[C@H]1CCC[C@H](NC(=O)c2ccc(-c3cccc(F)c3)nc2)C1` (relative stereo) [Example 244, N-[trans-3-Aminocyclohexyl]-6-(3-fluorophenyl)nicotinamide], for which the IC50 amounted to 192 nM. For `CC(C)(O)[C@@H]1CCC[C@H](NC(=O)c2ccc(-c3cccc(F)c3)nc2)C1` (relative stereo) [Example 262], the IC50 came to 81 nM. The figure for `CC(=O)NC(C)(C)[C@H]1CC[C@H](NC(=O)c2ccc(-c3cccc(F)c3)nc2)CC1` [Example 113P, N-[trans-4-(1-acetamido-1-methylethyl)cyclohexyl]-6-(3-fluorophenyl)nicotinamide] is 9.1 nM; for `CN(C)CCNC(=O)[C@@H]1CC[C@H](NC(=O)c2ccc(-c3cccc(F)c3)nc2)C1` [Example 167, N-[(1S,3R)-3-{[2-(Dimethylamino)ethyl]carbamoyl}cyclopentyl]-6-(3-fluorophenyl)nicotinamide] it is 28.5 nM. For `COCC(=O)N[C@H]1CC[C@H](NC(=O)c2ccc(-c3cccc(F)c3)nc2)CC1` [Example 113N, 6-(3-fluorophenyl)-N-{trans-4-[(methoxyacetyl)amino]cyclohexyl}nicotinamide], the IC50 stood at 11.5 nM.

As for `COc1cccc(-c2ccc(C(=O)NC3CCCCC3)cn2)c1` [Example 20, N-Cyclohexyl-6-(3-methoxyphenyl)nicotinamide], the IC50 turned out to be 105 nM. Under `CN(C)CC(=O)NC[C@H]1CCC[C@@H](NC(=O)c2ccc(-c3cccc(F)c3)nc2)C1` (relative stereo) [Example 253] stands 50.9 nM; under `CC(O)[C@H]1CCC[C@@H](NC(=O)c2ccc(-c3cccc(F)c3)nc2)C1` (relative stereo) [Example 199, 6-(3-Fluorophenyl)-N-[(cis)-3-(1-hydroxyethyl)cyclohexyl]nicotinamide], 21.8 nM; under `O=C(N[C@H]1CC[C@H](O)CC1)c1ccc(-c2cccc(F)c2)nc1` [Example 104, 6-(3-Fluorophenyl)-N-(trans-4-hydroxycyclohexyl)nicotinamide], 2.29 nM. On to `CS(=O)(=O)N[C@@H]1CCC[C@H](NC(=O)c2ccc(-c3cccc(F)c3)nc2)C1` (relative stereo) [Example 207, 6-(3-Fluoro-phenyl)-N-cis-(3-methanesulfonylamino-cyclohexyl)-nicotinamide], for which the IC50 is 81.1 nM. Under `Cc1ccnn1CC(=O)N[C@H]1CC[C@H](NC(=O)c2ccc(-c3cccc(F)c3)nc2)CC1` [Example 113M, 6-(3-fluorophenyl)-N-(trans-4-{[(5-methyl-1H-pyrazol-1-yl)acetyl]amino}cyclohexyl)nicotinamide] stands 7.6 nM; under `CN(C)C(=O)[C@H]1CC[C@@H](NC(=O)c2ccc(-c3cccc(F)c3)nc2)C1` [Example 165, N-[(1R,3S)-3-Dimethylcarbamoyl-cyclopentyl]-6-(3-fluorophenyl)nicotinamide], 16.9 nM; under `CN1CCN(C(=O)C[C@H]2CC[C@@H](NC(=O)c3ccc(-c4cccc(F)c4)nc3)CC2)CC1` [Example 274, 6-(3-Fluorophenyl)-N-{cis-4-[2-(-methylpiperazin-1-yl)-2-oxoethyl]cyclohexyl}nicotinamide], 13.7 nM. Take `CC(C)(CO)NC(=O)[C@H]1CCC[C@@H](NC(=O)c2ccc(-c3cccc(F)c3)nc2)C1` (relative stereo) [Example 196]: the half-inhibitory concentration (IC50) is 9.6 nM. With `O=C(CO)N[C@H]1CCC[C@H](NC(=O)c2ccc(-c3cccc(F)c3)nc2)C1` (relative stereo) [Example 245], the IC50 is 21.6 nM. Under `N[C@H]1CC[C@H](NC(=O)c2ccc(-c3cccc(F)c3)nc2)CC1` [Example 142B, N-(trans-4-Aminocyclohexyl)-6-(3-fluorophenyl)nicotinamide] stands 16.4 nM; under `COC1(CO)CCC(NC(=O)c2ccc(-c3cccc(F)c3)nc2)CC1` (stereo not drawn) [Example 225, 6-(3-Fluorophenyl)-N-[4-(hydroxymethyl)-4-methoxycyclohexyl]nicotinamide], 5.3 nM. The figure for `O=C(N[C@H]1CC[C@@H](C(=O)N2CC[C@@H](F)C2)C1)c1ccc(-c2cccc(F)c2)nc1` [Example 161, 6-(3-fluorophenyl)-N-[(1S,3R)-3-{[(3R)-3-fluoropyrrolidin-1-yl]carbonyl}cyclopentyl]nicotinamide] is 4.1 nM; for `O=C(N[C@@H]1CCC[C@@H](C(=O)N2CCOCC2)C1)c1ccc(-c2cccc(F)c2)nc1` (relative stereo) [Example 241] it is 15.4 nM; for `CC[C@H](O)C(=O)N[C@H]1CC[C@H](NC(=O)c2ccc(-c3cccc(F)c3)nc2)CC1` [Example 113L, 6-(3-fluorophenyl)-N-(trans-4-{[(2S)-2-hydroxybutanoyl]amino}cyclohexyl)nicotinamide] it is 6.1 nM. The figure for `N[C@H]1CC[C@@H](NC(=O)c2ccc(-c3cccc(F)c3)nc2)CC1` [Example 155, N-(cis-4-Aminocyclohexyl)-6-(3-fluorophenyl)nicotinamide] is 97.8 nM; for `NCCC(O)C1CCC(NC(=O)c2ccc(-c3cccc(F)c3)nc2)CC1` (stereo not drawn) [Example 154, N-[4-(3-Amino-1-hydroxypropyl)cyclohexyl]6-(3-fluorophenyl)nicotinamide hydrochloride] it is 40.3 nM.
